Legend:
Format in all cases: cell-based, Chinese Hamster
empty host CHO-K1 cells = assay: Growth of empty host CHO-K1 cells in seed train media with PDGFRa inhibitor and/or insulin
Excerpt: (§1) FIGS. 3A-3D. PDGFRa signaling is important for cell growth, e.g., CHO cell growth, and growth factor signaling is intact after PDGFRa inhibition. FIG. 3A is a schematic of PDGFRa and insulin receptor (IR) signaling upstream of protein synthesis, cell cycle progression and cell proliferation. Bolder arrows indicate stronger activation by respective receptors. FIG. 3B depicts empty CHO-K1 host cells VCC and % viability after 4 days in the presence or absence of PDGFRa inhibitor and/or insulin in the seed train media. FIG. 3C depicts western blot analysis of empty host CHO-K1 cells (of FIG. 3B) after 4 days in the presence or absence of PDGFRa inhibitor and/or insulin in the seed train media. FIG. 3D depicts Day 12 relative IVCC, % viability, relative titer and relative Qp of mAb2-expressing CHO-K 1 cells in the presence of PDGFRa inhibitor and/or insulin during production.
FIGS. 4A-4D. FIG. 4A depicts empty host CHO-K1 cells viable cell count (VCC) and % viability after 4 days in increasing PDGFRa inhibitor concentrations in the seed train media. FIG. 4B depicts western blot analysis of empty host CHO-K1 cells after 4 days in increasing PDGFRa inhibitor concentrations in the seed train media. FIG. 4C depicts western blot analysis mAb2-expressing CHO-K 1 cells in production in the presence or absence of PERK inhibitor at 10 μM concentration. […]

[1] = tested on: mAb2-expressing CHO-K1 cells; assay: Fed-batch production of mAb2-expressing CHO cell line with PDGFRa inhibitor and/or insulin
Excerpt: as §1
Fed-batch production cultures were performed with proprietary chemically defined medium using different vessels (tube-spin and AMBR15) along with bolus feeds on Days 3, 7 and 10 as previously mentioned (Hsu, Aulakh, Traul, & Yuk, 2012). […] Titers were determined using Protein-A affinity chromatography with UV detection. Percent viability and viable cell count were determined using a Vi-Cell XR instrument (Beckman Coulter Item #383721). […]

PDGFRa = assay: Chemical UPR induction in CHO cultures, PDGFRa western blot and qPCR; conditions: mAb1-expressing CHO DG44 and CHO-K1 seed train cultures; optimal pH
Excerpt: FIGS. 1A-1G. […] FIG. 1C depicts western blot analysis of two mAb1-expressing host cell lines, CHO DG44 and CHO-K1, treated with chemical UPR inducers: tunicamycin and DTT. FIG. 1D depicts qPCR analysis of PDGFRa mRNA levels in both host cell lines of FIG. 1C treated with tunicamycin and DTT. FIG. 1E depicts western blot analysis of mAb1-expressing CHO-K1 cells treated with tunicamycin to activate the UPR in the presence of UPR pathway-specific inhibitors. […] FIG. 1F depicts qPCR analysis of PDGFRa mRNA levels in CHO-K1 cells treated with tunicamycin in the presence of UPR pathway-specific inhibitors. FIG. 1G depicts western blot analysis of WT and PERK KO empty host CHO-K1 (Clone 9) cell lines treated with tunicamycin and PERK inhibitor.
FIGS. 2A-2E. FIG. 2A depicts western blot analysis of mAb1-expressing CHO-K1 cells treated with thapsigargin to activate the UPR in the presence of different UPR pathway-specific inhibitors. […]
An interesting phenomenon was previously described where activation of UPR in seed train culture, triggered by lower pH conditions in a particular CHO cell line, negatively affected culture growth in production media at target pH (Tung, et al., 2018). When exposed to low pH conditions, high intracellular BiP levels were detected in this cell line that correlated to low growth profiles during production and poor bioprocess outcomes (Tung, et al., 2018). […]

COc1cc2ncc(-c3ccccc3)nc2cc1OC [PDGFRa inhibitor, AG-1296]
reduction of cell growth (empty host CHO-K1 cells; 20 μM, 4 days): approximately 50%
cell growth and cell viability in fed-batch production ([1]; PDGFRa inhibition on Day 3): significantly decreased cell growth, without affecting cell viability

Tunicamycin
fully functional PDGFRa levels (protein and mRNA) (PDGFRa): reduced at both the protein and mRNA levels

insulin
cellular growth of cultures treated with the PDGFRa inhibitor after addition of insulin (empty host CHO-K1 cells): partially rescued cellular growth
cell growth inhibition in production culture after addition of insulin ([1]; insulin on Day 3, PDGFRa inhibited): partially rescued the observed cell growth inhibition
